Test results reported in article PMC9962304, “Insightful Improvement in the Design of Potent Uropathogenic E. coli FimH Antagonists” (Pharmaceutics, 2023).
“Also recorded” adds a separate entry of the source.

What was measured:
E. coli FimH = system: E. coli FimH; parameters: method as in PMID 28671638; settings: unit inferred; previous work; cited from earlier work
[1] = molecular target: T1, FimH lectin domain (amino acids 1-158) (Escherichia coli, UniProt P08191); assay: biochemical; assay type: binding, E. coli; settings: for IC50: IC50, competitive inhibition of biotinylated Man-BSA binding to coated FimH lectin; for RIP (relative inhibitory potency): relative to reference MeMan, 23
T1 construct: using a FimH lectin domain (amino acids 1-158) LEctPROFILE kit (provided by GLYcoDiag); purchased GLYcoDiag (Orléans, France)
T1 sequence (P08191 22-179): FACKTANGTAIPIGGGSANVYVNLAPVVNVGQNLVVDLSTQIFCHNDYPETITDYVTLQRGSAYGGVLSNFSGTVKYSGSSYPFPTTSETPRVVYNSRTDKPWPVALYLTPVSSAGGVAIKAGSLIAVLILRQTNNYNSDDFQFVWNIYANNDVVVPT
Description: To measure the relative binding affinity of the newly synthesized compounds 11, 20, and 18 against FimH, the usual referenced standards were used for comparison with previously published data: heptyl α-D-mannopyranoside (HepMan, 21), para-nitrophenyl α-D-mannopyranoside (PNPMan, 22), and methyl α-D-mannopyranoside (MeMan, 23). The relative inhibitory potential of the above compounds was determined against a biotinylated Man-BSA conjugate using a FimH lectin domain (amino acids 1-158) LEctPROFILE kit (provided by GLYcoDiag) (Figure 1, Table 1).
FimH LEctPROFILE kit assays from GLYcoDiag (Orléans, France) were performed according to GlycoDiag’s protocol already described. Briefly, the interaction profiles of each compound were determined through a competitive inhibition assay based on the inhibition by the compounds of the interaction between FimH lectin coated onto the microplate surface and a biotinylated neoglycoprotein NeoM (Man-BSA) as a tracer. A mix of biotinylated Man-BSA (fixed concentration) and the corresponding compounds (range of concentrations) prepared in PBS supplemented with 1 mM CaCl2 and 0.5 mM MgCl2 was deposited in each well (50 µL each) in triplicate and incubated for two hours at room temperature. After washing with PBS buffer, the conjugate streptavidin-DTAF (dichlorotriazinylamino fluorescein) was added (50 µL) and incubated 30 min more. The plate was washed again with PBS. Finally, 100 µL of PBS was added for the readout of fluorescent plate performed with a fluorescence reader (Pherastar microplate reader, BMG labtech, λex = 485 nm, λem = 530 nm). The signal intensity is inversely correlated with the capacity of the compound to be recognized by the lectin and expressed as inhibition percentage with comparison with the corresponding tracer alone. Data analysis was performed with GraphPadPrism software (version 5.03 for windows, San Diego, CA, USA). 50% inhibitory concentration (IC50) was determined according to a standard dose-response/inhibition fitting model with the following equation: y = 100 / (1 + [inhibitor]/IC50) and expressed in nanomolar units.

[2] = system: strain CFT073 adhesion to HTB-9 cells; assay: Bacterial adhesion assay on bladder cell monolayers; assay type: cell-based, Escherichia coli / human; settings: for efficiency at reducing FimH-mediated bacterial adherence (result in words): 500 μM, HTB-9 cells, CFT073
Description: To evaluate the efficacy of the synthetic mannoside antagonists to inhibit the ability of CFT073 strain to adhere to epithelial cells, an in vitro adhesion assay was performed. For this purpose, equal amounts of strain CFT073 strain were inoculated in PBS supplemented with different concentrations of each mannoside at final concentrations of 100, 500 μM, and 1 mM and incubated for 3h under static conditions. Bacterial inoculation was used to infect cell line 5637 (HTB-9 cell) monolayers at a multiplicity of infection (MOI) of 10. At 2.5 h post-infection, the number of cell-associated bacteria was calculated by CFU/mL counting (Figure 9). No significant inhibition of bacterial adhesion to bladder cells was obtained using mannoside inhibitors at 100 µM. Conversely, a significant reduction (more than 1 log) in the number of adherent bacteria was observed by increasing the concentration of the mannosides to 500 μM in comparison to non-treated bacteria (Figure 10). The same extent of reduction in bacterial adhesion to bladder cells was obtained by increasing mannosides concentration to 1 mM, thereby showing a dose-dependent effect. […] To appraise qualitatively the reduction of bacterial adhesion, parallel infected cells were fixed, and Giemsa stained.
HTB-9 cells were routinely seeded in cell culture plates and maintained 2–4 days at 37 °C in a humidified atmosphere containing 5% CO2. For the adhesion assay, cells were seeded in 35 mm tissue culture plates at a density of 1 × 10^5 cells/well and incubated at 37 °C for 48 h to reach confluency. CFT073 was grown in LB under mild shaking conditions overnight and resuspended in phosphate buffer (PBS) to an inoculum of ~10^6 CFU/mL (normalized according to OD600). Each mannoside molecule was added to CFT073 inoculant at the final concentrations of 100, 500 μM and 1 mM and incubated for 3 h in static conditions. […] Images were recorded with a Leica DM5000B microscope equipped with DFX340/DFX300 camera and processed using the Leica Application Suite 2.7.0.R1 software (Leica).

UPEC strain CFT073 = assay: Mannosides as carbon source, CFU/mL counting in PBS; assay type: cell-based, Escherichia coli; settings: 24 h, 37 °C, 500 μM (D-mannose also 83 mM)
Description: To test whether the above mannoside derivatives could exert bactericidal and/or cytotoxic activities, bacterial growth and cell viability assays were undertaken in the presence of each mannoside at different concentrations. Natural D-mannose (D-Man) was included as control. […] Moreover, no cytotoxic effect was recorded for urinary bladder cell line 5637 (HTB-9 cell) monolayers, as measured by the MTT test (Figure 6). Since D-mannose can serve as nutrient replacement for E. coli when there is a shortage of D-glucose, we tested whether these new derivatives could be used as carbon sources as well [5]. […] Bacteria were incubated for an additional 24 h in the absence and in the presence of different mannosides and the number of viable bacteria was assessed by CFU/mL counting. […] Since carbohydrates can influence the activity of conventional antibiotics, the activity of different classes of antibiotics such as ampicillin (AMP 30 μg/mL), streptomycin (SM 50 µg/mL), and gentamycin (GM 50 µg/mL) in the presence of the synthetic mannoside analogs was evaluated.
Mannosides dissolved in dimethyl sulfoxide DMSO or water at a final concentration of 5 mM were prepared. […] Readings of culture turbidity (OD600) were determined using a plate reader (POLARstar Omega BMG Labtech plate reader, Germany). […]

SMILES | Kd (E. coli FimH) [nM] | IC50 [1] [nM] | RIP (relative inhibitory potency) [1] | efficiency at reducing FimH-mediated bacterial adherence (result in words) [2] | lower concentration than natural D-mannose for same extent of bacterial adhesion inhibition ([2]; compared with natural D-mannose) [fold] | number of viable bacteria (CFU/mL) compared to non-treated control (UPEC strain CFT073)
OC[C@H]1O[C@H](C/C=C/c2ccc(-c3ccccc3)cc2)[C@@H](O)[C@@H](O)[C@@H]1O [Compound 18] | 17 ± 3.5 | 30.3 ± 9 | 93 |  |  | 
CCCCCCCO[C@H]1O[C@H](CO)[C@@H](O)[C@H](O)[C@@H]1O [Compound 21, heptyl α-D-mannopyranoside] |  | 19.4 ± 5.2 | 145 |  |  | 
CO[C@H]1O[C@H](CO)[C@@H](O)[C@H](O)[C@@H]1O [Compound 23, methyl α-D-mannopyranoside] |  | 2810 | 1 | less efficient | 164 | 
O=[N+]([O-])c1ccc(O[C@H]2O[C@H](CO)[C@@H](O)[C@H](O)[C@@H]2O)cc1 [Compound 22, para-nitrophenyl α-D-mannopyranoside] |  | 74.1 | 38 |  |  | 
OC[C@H]1OC(O)[C@@H](O)[C@@H](O)[C@@H]1O (stereo partly drawn) [D-mannose] |  |  |  |  |  | supports the growth; also recorded: increased significantly
OC[C@H]1O[C@H](C/C=C/c2ccc3ncccc3c2)[C@@H](O)[C@@H](O)[C@@H]1O [Compound 11] |  | 3.17 ± 2.3 | 887 | most efficient; also recorded: better potency in inhibiting bacterial adhesion |  | 
OC[C@H]1O[C@H](C/C=C/c2ccccc2-c2ccncc2)[C@@H](O)[C@@H](O)[C@@H]1O [Compound 20] |  | 0.82 ± 0.4 | 3428 |  |  | 
